Data published in PMC6218115, “In Vitro Potency and Preclinical Pharmacokinetic Comparison of All-D-Enantiomeric Peptides Developed for the Treatment of Alzheimer’s Disease” (Journal of Alzheimer's Disease, 2018).
Like-named read-outs stand apart in the source and are kept apart here. Non-standard residues stand in square brackets, D forms with d. Residues, ends and D or L forms follow the SMILES beside them.

Legend:
[1] = Cell viability assay (MTT), Aβ1-42-induced cytotoxicity; format: cell-based, rat
Experimental: The cells (10,000 cells/well) were incubated on collagen coated 96 well plates (Gibco, Life Technologies, # A11428-03) for growth in adherent cell culture (24 h, 37°C). Oligomeric Aβ was generated by incubating monomeric Aβ1 - 42 in sodium phosphate buffer (10 mM Na2HPO4/NaH2PO4, pH 7.4) at 21°C and 600 rpm agitation for 4.5 h. […] Absorbance readout was detected with a Polarstar Optima plate reader (BMG, Germany) at 570 and 660 nm. The relative cell viability [%] was calculated by normalizing the absorbance readout to the positive control (PC12 cells incubated with buffer). The IC50 value was determined by plotting the relative cell viability [%] against the respective D-peptides' concentrations. Datasets were fitted by nonlinear regression (logistic fit; OriginPro 9.0G).

[2] = Free drug fraction (fu) in human plasma predicted from HSA and AGP affinities; format: in vitro ADME; details: predicted from affinities to HSA and AGP, at 0.01 μM peptide (blood level 4 h after oral administration)
Experimental: (§1) Plasma protein binding (PPB) to human serum albumin (HSA) and α1-acid glycoprotein (AGP) of ANK6, tANK6, and cANK6r was analyzed according to the manufacturer’s protocol of TRANSIL^XL HSA and AGP binding kits (Sovicell GmbH, Germany). To cover a larger range of HSA and AGP concentrations, the bead concentrations in the kit were modified. For detection, a mixture of ^3H-labelled and non-labelled ANK6, tANK6, and cANK6r (final concentrations of 5μM) was added to different concentrations of HSA (7.4μM to 420μM, 10–12 different concentrations) or AGP beads (0.04μM to 3μM, 9–12 different concentrations). The amount of unbound ANK6, tANK6, and cANK6r (in %) to HSA or AGP, respectively, was determined by liquid scintillation counter (LSC) measurements. The dissociation constants (KD) as well as the free drug fractions (fu) in human plasma were calculated as described before. Calculations were based on peptide concentrations detected in the blood 4 h after single oral administration of 10 mg/kg: 0.01μM ANK6, 0.01μM tANK6, and 0.01μM cANK6r.

[3] = Plasma protein binding, TRANSIL XL AGP binding kit; format: in vitro ADME, human; details: TRANSIL XL AGP beads 0.04-3 μM, 5 μM peptide (3H-labelled + non-labelled), LSC read-out, nonlinear regression
Experimental: as §1

[4] = Blood-brain barrier values (logBB, Kin, Vi, PS); format: in vivo, C57Bl/6N mice; details: mice; for logBB, blood-brain equilibrium distribution: after i.v. administration 3.3 mg/kg, log(AUClast,br/AUClast,pl); for PS, permeability surface-area product / Vin / Kin, unidirectional influx rate constant: after i.v. administration; for PS, permeability surface-area product: CBF 1.07 mL/(g*min); for Vin: graphical determination (initial distribution volume in brain); for Kin, unidirectional influx rate constant: graphical determination, linear range 0-240 min (ANK6, cANK6r), 0-1440 min (tANK6)
Experimental: To allow for direct comparison with other peptides, four universally applied BBB parameters were determined: the blood-brain equilibrium distribution (logBB), the […] influx rate constant (Kin), the initial distribution volume in brain (Vi), and the permeability surface-area product (PS). Based on data of the concentration-time profiles and pharmacokinetic parameters after i.v. administration, the BBB parameters were calculated with the help of the formulas listed in Table 2. Graphical determination of Kin and Vi was conducted by plotting the brain concentration to plasma concentration ratio at certain time points (Cb (t)/Cp (t) [mL/g]) on the y-axis against the exposure time (AUCp (t)/Cp (t) [min]) on the x-axis. The linear range for Kin and Vi determination was between 0 and 240 min for ANK6 and cANK6r (R^2: 0.9970, 0.9996) and between 0 and 1440 min for tANK6 (R^2: 0.9758). PS was calculated on the basis of a murine cerebral blood flow (CBF) of 1.07 mL/(g*min).

Aβ1-42 oligomers = biological target: T1, Aβ1-42 oligomers (Homo sapiens, UniProt P05067); assay: Quantitative determination of interference with Aβ aggregate size distribution (QIAD); format: biochemical; details: for Aβ concentrations in fractions 1 and 2 (Aβ monomers): 80 μM Aβ1-42, 20 μM peptide; for Aβ oligomer concentrations in fractions 4 to 6 versus Aβ1-42 alone: 80 μM Aβ1-42 pre-incubated 2.5 h, 20 μM peptide, 40 min, density gradient centrifugation, RP-HPLC UV 214 nm, p≤0.001
T1 construct: Lyophilized Aβ1 - 42 was dissolved in the respective peptide solution; purchased Isoloid GmbH (recombinant) or Bachem AG (synthetic)
T1 sequence (P05067 672-713 limits assumed): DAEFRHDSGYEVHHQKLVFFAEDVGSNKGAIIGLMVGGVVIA
Experimental: As soluble Aβ oligomers are currently expected to be the most neurotoxic Aβ species causing AD, the Aβ1 - 42 oligomer elimination potency of ANK6, tANK6, and cANK6r was investigated by the quantitative determination of interference with Aβ aggregate size distribution (QIAD) similar as described before. In short, lyophilized Aβ1 - 42 was dissolved in sodium phosphate buffer to a final concentration of 80μM and incubated for 2.5 h (21°C, 600 rpm) to achieve an Aβ aggregate distribution including monomers, oligomers, and higher molecular aggregates. Then, sodium phosphate buffer (control), 20μM ANK6, 20μM tANK6, or 20μM cANK6r were added and incubated for further 40 min (21°C, 600 rpm). Afterwards, the samples were loaded on top of a density gradient (5 to 50% (w/v) iodixanol, OptiPrep, Axis-Shield, Norway) and ultra-centrifuged for 3 h (4°C, 259.000× g, Optima TL-100, Beckman Coulter, USA). In the following, 14 fractions (140μL each) were taken from top to bottom, whereby the top fractions (1-2) contained Aβ monomers, the middle fractions (4–6) contained the Aβ oligomers of special interest, and the bottom fractions (11–14) contained high molecular weight co-precipitates. The left-over was diluted in 60μL 6 M guanidine hydrochloride (fraction 15). Finally, the Aβ1 - 42 concentrations in all fractions were determined via analytical RP-HPLC (reversed phase-high performance liquid chromatography) and UV absorbance detection at 214 nm.

tg-APPSwDI mice = details: intraperitoneal treatment, 4 weeks; Klein et al.; cited from earlier work
[5] = biological target: human serum albumin (HSA) (Homo sapiens, UniProt P02768); assay: Plasma protein binding, TRANSIL XL HSA binding kit; format: in vitro ADME; details: TRANSIL XL HSA beads 7.4-420 μM, 5 μM peptide (3H-labelled + non-labelled), LSC read-out, nonlinear regression
Chain of human serum albumin (HSA) (P02768 25-609): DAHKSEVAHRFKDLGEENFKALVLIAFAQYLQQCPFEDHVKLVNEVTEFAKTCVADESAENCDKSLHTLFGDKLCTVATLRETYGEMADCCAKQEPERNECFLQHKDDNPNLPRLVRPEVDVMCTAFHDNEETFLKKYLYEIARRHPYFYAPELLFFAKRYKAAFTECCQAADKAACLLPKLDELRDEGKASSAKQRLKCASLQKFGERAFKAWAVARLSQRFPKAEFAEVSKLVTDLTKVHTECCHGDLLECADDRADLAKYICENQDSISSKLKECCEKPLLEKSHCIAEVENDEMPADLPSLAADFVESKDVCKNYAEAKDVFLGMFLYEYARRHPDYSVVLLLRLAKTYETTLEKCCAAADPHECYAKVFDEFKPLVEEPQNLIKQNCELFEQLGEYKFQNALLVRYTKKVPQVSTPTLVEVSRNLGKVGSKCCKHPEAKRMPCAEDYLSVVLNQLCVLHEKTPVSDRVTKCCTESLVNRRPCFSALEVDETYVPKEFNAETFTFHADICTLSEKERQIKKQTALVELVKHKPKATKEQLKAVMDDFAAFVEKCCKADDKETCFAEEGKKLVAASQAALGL
Experimental: as §1

overall fu in plasma (fraction unbound) [2] | Kd [3] | logBB, blood-brain equilibrium distribution [4] | PS, permeability surface-area product [4] | Vin [4] | Kin, unidirectional influx rate constant [4] | Aβ oligomer concentrations in fractions 4 to 6 versus Aβ1-42 alone (Aβ1-42 oligomers) | SMILES | IC50 [1] | Aβ concentrations in fractions 1 and 2 (Aβ monomers) (Aβ1-42 oligomers) | IC50 ([1]; PC12 cells, MTT, 1 μM oligomeric Aβ1-42, peptide 0.008-15 μM, overnight 37°C, quintuplicates, logistic fit, read-out: IC50, reduction of Aβ1-42-induced cytotoxicity (cell viability)) | memory performance of tg-APPSwDI mice (tg-APPSwDI mice) | KD to HSA [5]
0.29% | 60 nM | 0.335 | 0.0016 mL/g/min | 0.5833 mL/g | 0.0016 mL/g/min | significantly lowered | CC[C@@H](C)[C@@H](NC(=O)[C@@H](CCCNC(=N)N)NC(=O)[C@@H](CCCCN)NC(=O)[C@H](N)CCCNC(=N)N)C(=O)N[C@H](CCCNC(=N)N)C(=O)N[C@H](CC(C)C)C(=O)N[C@@H](C(=O)N[C@@H](C(=O)N[C@H](CCCCN)C(=O)N[C@H](CCCCN)C(=O)N[C@H](CCCCN)C(=O)N[C@H](CCCNC(=N)N)C(=O)N[C@H](CCCNC(=N)N)C(=O)N[C@H](CCCCN)C(=O)N[C@H](CCCNC(=N)N)C(=O)N[C@@H](C(=O)N[C@H](CCCNC(=N)N)C(=O)N[C@H](CC(C)C)C(=O)N[C@@H](C(=O)N[C@@H](C(=O)N[C@H](CCCCN)C(=O)N[C@H](CCCCN)C(=O)N[C@H](CCCCN)C(=O)N[C@H](CCCNC(=N)N)C(N)=O)[C@H](C)O)C(C)C)[C@H](C)CC)[C@H](C)O)C(C)C [tANK6] (H-[dR][dK][dR][dI][dR][dL][dV][dT][dK][dK][dK][dR][dR][dK][dR][dI][dR][dL][dV][dT][dK][dK][dK][dR]-NH2; N-terminus assumed) | 4400 nM | reduced the Aβ monomer concentrations much stronger | – | – | –
1.36% | 280 nM | –0.329 | 0.0003 mL/g/min | 0.0396 mL/g | 0.0003 mL/g/min | significantly lowered | CC[C@@H](C)[C@H]1NC(=O)[C@@H](CCCNC(=N)N)NC(=O)[C@@H](CCCCN)NC(=O)[C@@H](CCCNC(=N)N)NC(=O)[C@@H](CCCNC(=N)N)NC(=O)[C@@H](CCCNC(=N)N)NC(=O)[C@@H](CCCCN)NC(=O)[C@@H](CCCCN)NC(=O)[C@@H](CCCCN)NC(=O)[C@@H]([C@H](C)O)NC(=O)[C@@H](C(C)C)NC(=O)[C@@H](CC(C)C)NC(=O)[C@@H](CCCNC(=N)N)NC1=O [cANK6r] (cyclo([dR][dK][dR][dI][dR][dL][dV][dT][dK][dK][dK][dR][dR])) | 14000 nM | only slightly lowered | – | – | –

SMILES | overall fu in plasma (fraction unbound) [2] | Kd [3] | logBB, blood-brain equilibrium distribution [4] | PS, permeability surface-area product [4] | Vin [4] | Kin, unidirectional influx rate constant [4] | Aβ oligomer concentrations in fractions 4 to 6 versus Aβ1-42 alone (Aβ1-42 oligomers) | IC50 [1] | Aβ concentrations in fractions 1 and 2 (Aβ monomers) (Aβ1-42 oligomers) | IC50 ([1]; PC12 cells, MTT, 1 μM oligomeric Aβ1-42, peptide 0.008-15 μM, overnight 37°C, quintuplicates, logistic fit, read-out: IC50, reduction of Aβ1-42-induced cytotoxicity (cell viability)) | memory performance of tg-APPSwDI mice (tg-APPSwDI mice) | KD to HSA [5]
CC[C@@H](C)[C@@H](NC(=O)[C@@H](CCCNC(=N)N)NC(=O)[C@@H](CCCCN)NC(=O)[C@H](N)CCCNC(=N)N)C(=O)N[C@H](CCCNC(=N)N)C(=O)N[C@H](CC(C)C)C(=O)N[C@@H](C(=O)N[C@@H](C(=O)N[C@H](CCCCN)C(=O)N[C@H](CCCCN)C(=O)N[C@H](CCCCN)C(=O)N[C@H](CCCNC(=N)N)C(N)=O)[C@H](C)O)C(C)C [ANK6] (H-[dR][dK][dR][dI][dR][dL][dV][dT][dK][dK][dK][dR]-NH2; N-terminus assumed) | 1.43% | 290 nM | –0.401 | 0.0003 mL/g/min | 0.0575 mL/g | 0.0003 mL/g/min | significantly lowered | – | reduced the Aβ monomer concentrations much stronger | 11200 nM | a non-significant tendency for improving memory performance | not analyzable
